One molecule from patent publication US20230312587A1, “PTERIDINONE COMPOUNDS AND USES THEREOF” (Vertex Pharmaceutical Incorporated, priority 2018, published 2023) can be followed below.

For test [1], the target named is Plk1 (Homo sapiens (Human), UniProt P53350). The experiment in a line: PLK1 inhibition assay (radioactive-phosphate incorporation). In kind it is biochemical. The settings on record: Ki(app), read-out: PLK1 - 33P.ENZ - CB 10 Ki. An outline of the steps: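 Radioactive-phosphate incorporation with 15 nM Plk1 and 9 µM Sam68 substrate, 20 µM [γ-33P]ATP, in 25 mM HEPES pH 7.5, 10 mM MgCl2, 25 mM NaCl, 2 mM DTT, 1.5% DMSO, room temperature, 45 min. Stopped with TCA/cold ATP, filtered, scintillation counted. Ki(app) from non-linear regression of background-corrected initial rates.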
Chain of Plk1 (P53350 whole entry, species assumed): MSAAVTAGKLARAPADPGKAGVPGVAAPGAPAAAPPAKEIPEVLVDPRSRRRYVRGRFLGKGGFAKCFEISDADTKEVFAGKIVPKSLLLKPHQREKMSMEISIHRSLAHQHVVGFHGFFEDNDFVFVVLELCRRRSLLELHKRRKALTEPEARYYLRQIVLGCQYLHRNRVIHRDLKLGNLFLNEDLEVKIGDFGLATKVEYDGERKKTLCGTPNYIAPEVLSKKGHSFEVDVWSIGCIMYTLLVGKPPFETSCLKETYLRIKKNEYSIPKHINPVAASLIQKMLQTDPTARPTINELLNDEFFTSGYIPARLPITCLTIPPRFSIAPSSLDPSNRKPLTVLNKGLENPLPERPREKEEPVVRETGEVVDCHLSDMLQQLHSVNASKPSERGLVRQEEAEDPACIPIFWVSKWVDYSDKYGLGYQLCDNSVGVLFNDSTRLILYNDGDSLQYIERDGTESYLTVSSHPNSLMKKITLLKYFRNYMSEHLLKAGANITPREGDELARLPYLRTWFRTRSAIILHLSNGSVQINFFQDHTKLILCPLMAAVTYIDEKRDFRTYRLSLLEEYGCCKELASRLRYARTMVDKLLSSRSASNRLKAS

In test [2] the test system is HepG2 WFS1 KO. The experiment in a line: In vitro cell viability (CellTiter-Glo), HepG2 WFS1 KO. It is filed as cell-based. The note with it: cell viability; for IC50: Homo sapiens, HepG2 WFS1 KO, 96 hours. The text has this:
A double cleavage strategy was employed to remove large fragments from the WFS1 locus. Suitable target sites in WFS1 exon 8 were first selected using CRISPR design software to rank suitable target sites and computationally predict off-target sites for each intended target. Six top guide RNA sequences are identified and screened for activity using the Surveyor Mutation Detection Kit (Integrated DNA Technologies). Then, the best 2 guide RNAs were cloned into GeneArt OFP CRISPR nuclease vectors (Thermofisher, Cat #A21174) separately and co-transfected into HepG2 cells using nucleofection (4D Nucleofector X, Lonza). Cells were sorted by FACS 48 hrs later to enrich for the OFP positive cell population. The OFP positive cell population were plated into 96-well plates at 0.5-5 cells/well to isolate clonal cell lines. After allowing cells to expand for 2-3 weeks, plates were inspected for presence of colonies. When colonies became more than 70% confluent, they were dissociated with trypsin and were further expanded. Cell clones with homozygous double cleavage of WFS1 exon 8 were detected with PCR and confirmed with DNA sequencing.
HEK293 cells containing empty pCLPCx vector (HEK293 empty), HEK293 cells stably over-expression WFS1 (HEK293 WFS1), HepG2, and HepG2 cells where WFS1 was depleted via CRISPR/Cas9 (HepG2 WFS1 KO) cells were plated into 96-well black plates (Corning, product #3904) in 100 microliters of complete DMEM cell culture media [DMEM (Life Technologies, product #11960-051) media supplemented with 10% FBS (Hyclone, catalog #SH30071.03), antimycotic/antibiotic (Life Technologies, product #15240-062), and Glutamax (Life Technologies, product #35050-061)] at 1,000 (HEK293) or 5,000 (HepG2) cells per well. Cells were allowed to attach and grow overnight, after which compounds are added at various concentrations. Cell viability was assessed 96 hrs after compound addition with CellTiter-Glo reagent (Promega, catalog #G7570) according to manufacturer's protocol and measurement on a Pherastar luminescence plate reader (BMG Labtech).
To determine the effect of WFS1 depletion on compound mediated inhibition of cell viability, parental HepG2 cells and HepG2 cells where WFS1 was deleted by CRISPR/Cas9 were exposed to increasing concentrations of either Compound 136 or Compound 253 for 96 hours after which time viability was determined using Cell Titer Glo reagent (Promega). […] The IC50s for the viability of both the HepG2 parental and WFS1 knockout cells are summarized in Table 47: A<0.5 μM; 0.5 μM≤<2.0 μM; 2.0 μM≤C<10.0 μM; D≥[…].

Test [3] concerns non-small cell lung cancer (NSCLC) adenocarcinoma line D33966. The test can be described thus: In vivo efficacy, NSCLC patient derived xenograft OD33966. The arrangement: species or system nu/nu mice. The settings on record: Mus musculus, 336 h; NSCLC PDX OD33966, oral, 100 mpk qd, treatment day 14; read-out: % TGI. Here is the method:
Female immune deficient mice (Charles River, 4-6 wks age) were anesthetized with Ketamine-Xylazine (140 mg/kg-14 mg/kg ip) and shaved. Puralube eye ointment was applied to the eyes to prevent desiccation of the corneas. Betadine and 70% ethanol was applied to the shaved location to sterilize the skin at the location of the incision. The animals were placed in a biosafety cabinet for the duration of the surgery. Using scissors, an 8 to 10 mm incision was made in the lateral flank of the skin. A tumor fragment weighing between 50 and 150 mg was placed under the skin at the incision site using forceps, and staples were used to close the incision. The staples were removed 5 to 7 days after surgery. Starting approximately two weeks after implantation, animals were weighed, and tumors were measured using caliper twice weekly. Tumor volume was calculated using the formula: volume=length×width^2×0.52.
Compound administration began when xenografts reached approximately 100-300 mm3 and continued until control xenografts reached […] of the animal's body weight. Test compounds were administered orally by gastric gavage. Percent tumor growth inhibition (TG) was calculated on the indicated treatment day. Percent TGI is defined as: [1−(del T/del C)]×100%, where del T is the final minus initial average volumes of the treated group, and del C is the final minus initial average volumes of the control group. […] The tested compounds were administered orally. Vehicle control consisted of either 0.5% methylcellulose/0.1% sodium lauryl sulfate or 20% captisol. Tumor volumes were determined by caliper measurement twice a week.

Read-outs that look alike come from different tables or passages of the source.

Turning to `Cc1nc(N[C@H]2C[C@H](Oc3cc(F)c(F)c(F)c3)C2)nc2c1N(C)C(=O)[C@H](C)N2C` [Compound 253, (7S)-4,5,7,8-tetramethyl-2-((trans-3-(3,4,5-trifluorophenoxy)cyclobutyl)amino)-7,8-dihydropteridin-6(5H)-one], the Ki in test [1] is > 4 µM. Moreover, the IC50 in test [2] (Cell Titer Glo, read-out: IC50) was 4.4 µM; in test [2] (read-out: IC50 class), 2 to 10 µM. Also, the “shift in IC50 on depletion of WFS1 from HepG2 cells” value in test [2] (WFS1 KO vs parental HepG2, 96 hours) is reported as “greater than 5 fold”. For the same molecule, in test [3], the inhibition in vivo at 100 mg/kg is 96.6%.
